We go through two compounds from paper PMC12643354, “From Oxygen to Tellurium: The Impact of the Chalcogen on Nucleophilicities and Basicities of Isochalcogenourea Catalysts” (Angewandte Chemie (International Ed. in English), 2025).

Data set [1] can be described thus: Kinetics of IChU reactions with reference electrophile (lil)2CH+ (stopped-flow photometry). To be noted: E = −10.04, dichloromethane, 20 °C. The format is physicochemical. The source says: (§1) In order to systematically investigate the influence of the chalcogen atom on the nucleophilicity of DHPB‐derived IChUs (Ch = O, S, Se, and Te), we utilized Mayr's benzhydrylium methodology.^[ [107] ^]
In accordance with observations in previous studies on ITU reactivity,^[ [119] ^] mixing the strongly colored benzhydrylium tetrafluoroborates 18 with excess IChUs in dichloromethane gave rise to decolorization of the solutions due to the formation of isochalcogenouronium tetrafluoroborates 19, which are colourless (Figure 3a). […] To establish pseudo first‐order conditions and to secure a sufficient decay of the benzhydrylium's absorbance during the course of the reactions, the IChUs were employed at higher concentrations than the benzhydrylium ions. First‐order rate constants k obs (s^−1) were determined by fitting the mono‐exponential decay function in Equation (2) to the decreasing absorbance (A) of 18 during their reaction with the IChUs as exemplified for the reaction of ITeU3 with (ind)2CH^+ in Figure 3b. […]
First‐order rate constants k obs correlated linearly with the IChU concentration. Therefore, second‐order rate constants k 2 (L mol^−1 s^−1) were determined from the slope of the linear regression curves (Figure 3c ^[ [95] ^]). […]

Data set [2] can be described thus: Kinetics of IChU reactions with reference electrophile (ind)2CH+ (stopped-flow photometry). The format is physicochemical. The conditions noted are these: E = −8.76, dichloromethane, 20 °C.
Source text: as §1
(§2) In accordance with observations in previous studies on ITU reactivity,^[ [119] ^] mixing the strongly colored benzhydrylium tetrafluoroborates 18 with excess IChUs in dichloromethane gave rise to decolorization of the solutions due to the formation of isochalcogenouronium tetrafluoroborates 19, which are colourless (Figure 3a). Owing to reversibility of the C─N bond formation, generated adducts 19 from the IChU/benzhydrylium reactions were not isolated but characterized by ^1H, ^13C, and ^77Se NMR spectroscopy (the ^77Se nucleus is remarkably sensitive with observed changes of around 100 ppm when comparing the ^77Se resonances of free ISeUs with those of the corresponding selenouronium tetrafluoroborates^[ [95] ^]). The kinetics of the IChU reactions with the reference electrophiles 18 were traced by photometric methods using standard stopped‐flow techniques. To establish pseudo first‐order conditions and to secure a sufficient decay of the benzhydrylium's absorbance during the course of the reactions, the IChUs were employed at higher concentrations than the benzhydrylium ions. First‐order rate constants k obs (s^−1) were determined by fitting the mono‐exponential decay function in Equation (2) to the decreasing absorbance (A) of 18 during their reaction with the IChUs as exemplified for the reaction of ITeU3 with (ind)2CH^+ in Figure 3b. (2) A=A0e^−kobst+C […]
(§3) First‐order rate constants k obs correlated linearly with the IChU concentration. Therefore, second‐order rate constants k 2 (L mol^−1 s^−1) were determined from the slope of the linear regression curves (Figure 3c ^[ [95] ^]). Second‐order rate constants k 2 for all kinetically investigated reactions of DHPB‐derived IChUs (Ch = O, S, Se, and Te) with benzhydrylium ions 18 are gathered in Table 1.
(§4) Apart from CH2Cl2 also MeCN and THF are solvents that are commonly employed in reactions involving isochalcogenoureas. […]

The nature of data set [3]: Kinetics of IChU reactions with reference electrophile (pyr)2CH+ (stopped-flow photometry). The format is physicochemical. To be noted: E = −7.69, dichloromethane, 20 °C.
Source text: as §1, §2, §3, §4

Data set [4] can be described thus: Kinetics of IChU reactions with reference electrophile (dma)2CH+ (stopped-flow photometry). In kind it is physicochemical. To be noted: E = −7.02, dichloromethane, 20 °C.
Source text: as §1, §2, §3, §4

Data set [5] in a line: Mayr nucleophilicity parameters N and sN (benzhydrylium methodology, Mayr-Patz equation). In kind it is physicochemical. To be noted: dichloromethane, 20 °C.
Source text: (1) Mayr-Patz Equation: lgk20^∘C=sN(N+E)
The MPE is a linear‐free‐energy relationship that characterizes electrophiles by the electrophilicity parameter E and nucleophiles by the solvent‐dependent parameters N (nucleophilicity) and s N (sensitivity toward changes in the electrophile reactivity). By using the MPE (Equation (1)), the construction of comprehensive nucleophilicity and electrophilicity scales becomes possible, which facilitate the comparison of various classes of Lewis base organocatalysts.^[ [110], [111], [112], [113], [114], [115], [116], [117], [118], [119], [120] ^]
as §1
Figure 4 illustrates the linear correlations of the second‐order rate constants (lg k 2) with the electrophilicities E of Ar2CH^+ (18), which makes it possible to determine the Mayr nucleophilicity parameters N (and s N) for the DHPB‐derived IChUs IU3, ITU3, ISeU3, and ITeU3. […]
Figure 4 Linear correlations of second‐order rate constants (lg k 2) for the reactions of IU3, ITU3, ISeU3, and ITeU3 with Ar2CH^+ 18 (in dichloromethane at 20 °C) with the electrophilicities E of 18. The slopes of the linear correlations equal the nucleophile‐dependent sensitivity parameter s N. Intercepts on the abscissa reflect the nucleophilicity parameter N (N = –E at lg k 2 = 0).

The nature of data set [6]: Brønsted basicity pKaH by chemical shift imaging NMR method in DMSO and MeCN. On the procedure: Recently, Wiskur's group reported potentiometrically determined pK aH values (that is, the pK a of the conjugate acids) of achiral ITUs based on the BTM and DHPB scaffolds in aqueous media.^[ [89], [128] ^] […] In this work, we applied this NMR spectroscopic method to determine the pK aH values of further IChUs in DMSO and MeCN (Supporting Information).
First, a stock solution containing the analyte, two basic indicators and tetramethyl silane was prepared with the respective solvent (DMSO or acetonitrile).
Then 5-10 mg of acid were weighed into a NMR tube and subsequently covered with glass beads.
Figure S50: 5-10 mg of acid in Figure S51: Cover with 1 mm
Afterwards, 550 μL of the stock solution was layered carefully over the glass beads and the acid. The sample is then put in a 28 °C water bath (for DMSO) for 20 - 24h or left on the bench at 22 °C (for acetonitrile) for 1.5 - 2 h and then the NMR measurement was carried out at 20 °C.
Figure S52: Overlay the acid with the Figure S54: Visualized gradient after stock solution of two indicators and the 18h in DMSO (with Bromthymolblue) […]
Figure S53: Development of gradients in temperated water S145 […]
13.4 Indicator and Acid Data
Table S67: Limiting shifts (δH for the fully protonated and δL for the free base), pKas and abbreviations of indicators and acids in acetonitrile.
Table S68: Limiting shifts (δH for the fully protonated and δL for the free base), pKas and abbreviations of indicators

Data set [7] can be described thus: Lewis basicity LB from equilibrium constants (photometric titrations) with benzhydrylium ions as reference Lewis acids. The format is physicochemical. To be noted: in dichloromethane, 20 °C. As for the experimental part: (a) Lewis basicity. Previously, the Mayr group established a series of benzhydrylium ions as C‐centered Lewis acid references to construct a Lewis basicity scale in dichloromethane. Substituting experimentally determined equilibrium constants K (at 20 °C) and reported Lewis acidities LA for the benzhydrylium ions (Figure 7) in Equation (3) enables one to calculate the Lewis basicity (LB) of a Lewis base.^[ [121], [127] ^] (3) lgK(20^∘C)=LA+LB
The reversibility of the formation of adducts 19 (Equation (4)), which was also apparent in the kinetics by significant positive intercepts in several of the k obs versus [IChU] plots (Supporting Information), provided the opportunity to probe the thermodynamics of the C‐N bond‐forming reactions of IChUs with benzhydrylium ions as the reference Lewis acids in more detail.^[ [95] ^] (4) IChU+Ar2CH^+(18)⇌Ar2CH-IChU^+(19)
By assuming the validity of the Beer–Lambert law for dilute solutions, equilibrium constants K (L mol^−1) were determined in photometric titrations according to Equation (5) from the initial absorbance (A 0) of the benzhydrylium ions 18 and the absorbance at equilibrium (A, Equation 5), that is, after addition of a certain amount of an IChU.^[ [109], [110], [111], [112], [113], [114], [115], [119] ^] (5) K=[19]/[18]IChU=A0−A/AIChU

On the set-up of data set [8]: method as in PMID 21568333. The conditions noted are these: (ind)2CH+, E = −8.76, dichloromethane, 20 °C; cited from earlier work.
On the set-up of data set [9]: method as in PMID 21568333. The conditions noted are these: (thq)2CH+, E = −8.22, dichloromethane, 20 °C; cited from earlier work.
Details of data set [10]: method as in PMID 21568333. To be noted: (pyr)2CH+, E = −7.69, dichloromethane, 20 °C; cited from earlier work.
Details of data set [11]: method as in PMID 21568333. The conditions noted are these: (dma)2CH+, E = −7.02, dichloromethane, 20 °C; cited from earlier work.
The conditions of data set [12]: dichloromethane, 20 °C; cited from earlier work.
For data set [13] the following is noted: in dichloromethane, 20 °C; cited from earlier work.
The conditions of data set [14]: in methanolic aqueous solution (1:5-mixture); cited from earlier work.

Read-outs that look alike come from different tables or passages of the source. Marks after values point to notes of the source that are not given here.

With `c1ccc2c(c1)[Te]C1=NCCCN12` [ITeU3, TeDHPB], the “Second-order rate constant k2 exptl” value in data set [1] was 19400 M⁻¹ s⁻¹; in [2], 127000 M⁻¹ s⁻¹; in data set [3] it was 731000 M⁻¹ s⁻¹; in data set [4] it was 1.67e+06 M⁻¹ s⁻¹. The “Nucleophile-specific sensitivity parameter sN” value in data set [5] is given as 0.65. Moreover, in data set [5], the “Nucleophilicity parameter N” value is 16.63. Further, the “Brønsted basicity pKaH(DMSO)” value in data set [6] (in DMSO) is on record as 11.0. Moreover, the “Brønsted basicity pKaH(MeCN)” value in [6] (in MeCN) came to 19.7. The “Lewis basicity LB” value in [7] came out at 17.13.
As for `c1ccc2c(c1)SC1=NCCCN12` [ITU3, DHPB], the “Second-order rate constant k2 exptl” value is on record as 1.11 × 10^4 ^a) L mol^−1 s^−1 in data set [8], 2.07 × 10^4 ^a) L mol^−1 s^−1 in [9], 7.49 × 10^4 ^a) L mol^−1 s^−1 in data set [10] and 2.29 × 10^5 ^a) L mol^−1 s^−1 in data set [11]. For the same compound, the “Nucleophile-specific sensitivity parameter sN” value in data set [12] is reported as 0.78. In [12], the “Nucleophilicity parameter N” value is on record as 13.86. Also, the “Lewis basicity LB” value in data set [13] is listed as 15.39. Further, the “Brønsted basicity pKaH(H2O)” value in data set [14] is given as 9.9 ^c).
